From the supplement of paper PMC10307832

What was measured:
Assay in all cases: relative viability (nuclei count vs DMSO), 5 days (fraction); higher = more cells survive
EKVX = test system: EKVX
Outline: (§1)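 Cells from lung cancer lines were seeded into 1536-well plates and, one day later, dosed by pin tool. Treatments were either a single drug or a fixed dose of an anchor drug with five library-drug doses (not always all listed) in √10 steps. After 5 days, nuclei were stained in a one-step fixation (final 0.05% Triton X-100, 1% formaldehyde, 1 ug/ml Hoechst) and counted on 4× images, and relative viability is the treated-to-vehicle nuclei ratio, as the median of duplicate plates.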

HOP-62 = test system: HOP-62
Outline: as §1

NCI-H2347 = test system: NCI-H2347
Outline: as §1

NCI-H2023 = test system: NCI-H2023
Outline: as §1

HCC-44 = test system: HCC-44
Outline: as §1

LC-2-ad = test system: LC-2-ad
Outline: as §1

HCC-78 = test system: HCC-78
Outline: as §1

ABC-1 = test system: ABC-1
Outline: as §1

NCI-H1793 = test system: NCI-H1793
Outline: as §1

NCI-H1650 = test system: NCI-H1650
Outline: as §1

LOU-NH91 = test system: LOU-NH91
Outline: as §1

NCI-H596 = test system: NCI-H596
Outline: as §1

C=C1C(=O)O[C@@H](CCCCCCCC)[C@@H]1C(=O)O [C-75] + O=C(c1cc(Cc2n[nH]c(=O)c3ccccc23)ccc1F)N1CCN(C(=O)C2CC2)CC1 [Olaparib] (partner 8 µM)
relative viability (EKVX; first compound 0.08 µM): 0.811
relative viability (EKVX; first compound 0.253 µM): 0.884
relative viability (EKVX; first compound 0.8 µM): 0.837
relative viability (EKVX; first compound 8 µM): 0.759
relative viability (HOP-62; first compound 0.08 µM): 0.532
relative viability (HOP-62; first compound 0.253 µM): 0.5
relative viability (HOP-62; first compound 0.8 µM): 0.321
relative viability (HOP-62; first compound 2.53 µM): 0.372
relative viability (HOP-62; first compound 8 µM): 0.393
relative viability (NCI-H2347; first compound 0.08 µM): 0.552
relative viability (NCI-H2347; first compound 0.253 µM): 0.514
relative viability (NCI-H2347; first compound 0.8 µM): 0.532
relative viability (NCI-H2347; first compound 2.53 µM): 0.539
relative viability (NCI-H2347; first compound 8 µM): 0.614
relative viability (NCI-H2023; first compound 0.08 µM): 0.529
relative viability (NCI-H2023; first compound 0.253 µM): 0.579
relative viability (NCI-H2023; first compound 0.8 µM): 0.436
relative viability (NCI-H2023; first compound 8 µM): 0.395
relative viability (HCC-44; first compound 0.08 µM): 0.998
relative viability (HCC-44; first compound 0.253 µM): 0.944
relative viability (HCC-44; first compound 0.8 µM): 0.962
relative viability (HCC-44; first compound 2.53 µM): 0.905
relative viability (HCC-44; first compound 8 µM): 0.919
relative viability (LC-2-ad; first compound 0.08 µM): 0.683
relative viability (LC-2-ad; first compound 0.253 µM): 0.751
relative viability (LC-2-ad; first compound 0.8 µM): 0.343
relative viability (LC-2-ad; first compound 2.53 µM): 0.596
relative viability (LC-2-ad; first compound 8 µM): 0.668
relative viability (HCC-78; first compound 0.08 µM): 0.838
relative viability (HCC-78; first compound 0.253 µM): 1.08
relative viability (HCC-78; first compound 0.8 µM): 0.81
relative viability (HCC-78; first compound 8 µM): 0.823
relative viability (ABC-1; first compound 0.08 µM): 0.862
relative viability (ABC-1; first compound 0.253 µM): 0.703
relative viability (ABC-1; first compound 0.8 µM): 0.811
relative viability (ABC-1; first compound 2.53 µM): 0.719
relative viability (ABC-1; first compound 8 µM): 0.792
relative viability (NCI-H1793; first compound 0.08 µM): 0.766
relative viability (NCI-H1793; first compound 0.253 µM): 0.988
relative viability (NCI-H1793; first compound 2.53 µM): 0.705
relative viability (NCI-H1793; first compound 8 µM): 0.83
relative viability (NCI-H1650; first compound 0.08 µM): 0.802
relative viability (NCI-H1650; first compound 0.253 µM): 0.878
relative viability (NCI-H1650; first compound 0.8 µM): 0.827
relative viability (NCI-H1650; first compound 8 µM): 0.818
relative viability (LOU-NH91; first compound 0.08 µM): 0.909
relative viability (LOU-NH91; first compound 0.253 µM): 0.786
relative viability (LOU-NH91; first compound 0.8 µM): 0.878
relative viability (LOU-NH91; first compound 8 µM): 0.88
relative viability (NCI-H596; first compound 0.08 µM): 0.73
relative viability (NCI-H596; first compound 0.253 µM): 0.686
relative viability (NCI-H596; first compound 0.8 µM): 0.626
relative viability (NCI-H596; first compound 2.53 µM): 0.601
relative viability (NCI-H596; first compound 8 µM): 0.656
